{
  "source": "patent US7816342B2",
  "about": "“Anti-obesity compositions” (Hoffmann-La Roche Inc., priority 2002, dated 2010)",
  "test_system": "Healthy volunteers",
  "assay": "acute human side effect model (3-meal test), free oil",
  "assay_type": "in vivo",
  "settings": "orlistat alone (own control), individual volunteers",
  "text": "To test substances that will ameliorate the oil-related side effects associated with orlistat treatment, an acute human model was developed. Healthy volunteers received orlistat alone or in combination with the test substance during 3 consecutive meals (3-meal test). The modified orlistat formulations used in these 3-meal tests induce 70-80% fat excretion. A questionnaire was given to the volunteers to record side effects. The most severe oil related side effect is oily spotting (uncontrolled loss of oil). This side effect is difficult to quantify accurately in an acute model, however, in some volunteers a spontaneous separation of fat from formed stool was observed. This amount of fat, called free oil (mainly containing triglycerides) was isolated and weighted. The amount of free oil was used as a surrogate marker for the oily spotting as this is considered necessary for the appearance of oily spotting. Two clinical studies have been conducted to investigate the gastro-intestinal adverse event modifying effects of numerous substances. It appears that volunteers show an individual sensitivity to the orlistat-related gastro-intestinal side effects. […] For a given volunteer a substance is considered as positive when the free oil quantity is reduced by at least 50% compared to the control value (orlistat alone). […]",
  "note": "Values joined by “and” are separate entries in the source; they are usually repeats but may differ in a detail not shown here. Identical values can stand only once.",
  "data": [
    {"compound": "CCCCCCCCCCC[C@@H](C[C@@H]1OC(=O)[C@H]1CCCCCC)OC(=O)[C@H](CC(C)C)NC=O", "note": "[orlistat]", "values": [
      {"measurement": "Free oil production", "setting": "Test 1", "result": "11 g/week and 9 g/week"},
      {"measurement": "Free oil production", "setting": "Test 2", "result": "17 g/week and 40 g/week and 39 g/week"}
    ]}
  ]
}
